# Measurements reported in patent publication US20110173718A1, “HERBICIDE TOLERANT PLANTS” (SYNGENTA CROP PROTECTION, INC., priority 2008, published 2011).
# How the values were obtained:
# weeds [1] = experiment: Glasshouse weed control, HST inhibitors alone and with A22, post-emergence; type: in vivo; details: 14 DAT, single replicate; for pest or weed control at 15.625 g/ha / pest or weed control at 62.5 g/ha / pest or weed control at 250 g/ha: 336 h, read-out: % control score, Obs
# Method in brief: (§1)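 Weeds grown in glasshouse trays (24-27 C day, 18-21 C night, ~15 h photoperiod) and track-sprayed in 0.2% X77 at […], pre-emergence or post-emergence at about 7-12 d. HPPD inhibitor A22 applied at 2 g/ha alone or mixed with HST herbicides. Damage scored 0–100% at 14 DAT; synergy calculated by Colby formula.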
# weeds [2] = experiment: Glasshouse weed control, HST inhibitors alone and with A22, pre-emergence; type: in vivo; details: 14 DAT; for pest or weed control at 15.625 g/ha / pest or weed control at 62.5 g/ha / pest or weed control at 250 g/ha: 336 h
# Method in brief: as §1
# Arabidopsis HST = biological target: T1, Arabidopsis HST (Arabidopsis thaliana, UniProt Q1ACB3); experiment: HST total extraction (non TLC) assay, recombinant Arabidopsis HST from insect cells; type: biochemical
# T1 construct: GST (factor Xa cleavage site) (N); made in house; host or cells: Sf9 insect cells (baculovirus, pAcG3X), membrane fraction
# T1 sequence (Q1ACB3 70-386): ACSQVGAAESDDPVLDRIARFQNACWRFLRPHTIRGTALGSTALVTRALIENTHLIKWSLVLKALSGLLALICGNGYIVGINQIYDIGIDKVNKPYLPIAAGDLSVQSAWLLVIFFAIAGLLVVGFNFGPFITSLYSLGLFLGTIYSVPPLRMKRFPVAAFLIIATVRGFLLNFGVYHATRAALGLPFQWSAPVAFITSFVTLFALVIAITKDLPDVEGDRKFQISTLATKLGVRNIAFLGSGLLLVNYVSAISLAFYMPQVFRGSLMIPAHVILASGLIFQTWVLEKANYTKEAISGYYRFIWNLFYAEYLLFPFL
structure (smiles),measurement,setting,value
C#Cn1c(=O)c(-c2c(F)ccc(F)c2Cl)c(O)c2nccnc21 [Compound 2.18],"% control score, Obs","weeds [1]; BRAPL, 15.625 g/ha alone",5%
same,"% control score, Obs","weeds [1]; BRAPL, 62.5 g/ha alone",60%
same,"% control score, Obs","weeds [1]; BRAPL, 250 g/ha alone",80%
same,"% control score, Obs","weeds [1]; DIGSA, 15.625 g/ha alone",1%
same,"% control score, Obs","weeds [1]; DIGSA, 62.5 g/ha alone",30%
same,"% control score, Obs","weeds [1]; DIGSA, 250 g/ha alone",50%
same,"% control score, Obs","weeds [1]; ECHCG, 15.625 g/ha alone",2%
same,"% control score, Obs","weeds [1]; ECHCG, 62.5 g/ha alone",40%
same,"% control score, Obs","weeds [1]; ECHCG, 250 g/ha alone",70%
same,"% control score, Obs","weeds [1]; PANMI, 15.625 g/ha alone",10%
same,"% control score, Obs","weeds [1]; PANMI, 62.5 g/ha alone",65%
same,"% control score, Obs","weeds [1]; PANMI, 250 g/ha alone",70%
same,"% control score, Obs","weeds [1]; SETFA, 15.625 g/ha alone",10%
same,"% control score, Obs","weeds [1]; SETFA, 62.5 g/ha alone",60%
same,"% control score, Obs","weeds [1]; SETFA, 250 g/ha alone",85%
same,"% control score, Obs","weeds [1]; SIDSP, 15.625 g/ha alone",15%
same,"% control score, Obs","weeds [1]; SIDSP, 62.5 g/ha alone",60%
same,"% control score, Obs","weeds [1]; SIDSP, 250 g/ha alone",70%
same,"BRAPL Obs, % control score","weeds [2]; BRAPL, HST inhibitor rate 15.625 g/ha",0%
same,"BRAPL Obs, % control score","weeds [2]; BRAPL, HST inhibitor rate 62.5 g/ha",10%
same,"BRAPL Obs, % control score","weeds [2]; BRAPL, HST inhibitor rate 250 g/ha",40%
same,"DIGSA Obs, % control score","weeds [2]; DIGSA, HST inhibitor rate 15.625 g/ha",0%
same,"DIGSA Obs, % control score","weeds [2]; DIGSA, HST inhibitor rate 62.5 g/ha",0%
same,"DIGSA Obs, % control score","weeds [2]; DIGSA, HST inhibitor rate 250 g/ha",0%
same,"ECHCG Obs, % control score","weeds [2]; ECHCG, HST inhibitor rate 15.625 g/ha",0%
same,"ECHCG Obs, % control score","weeds [2]; ECHCG, HST inhibitor rate 62.5 g/ha",20%
same,"ECHCG Obs, % control score","weeds [2]; ECHCG, HST inhibitor rate 250 g/ha",20%
same,"PANMI Obs, % control score","weeds [2]; PANMI, HST inhibitor rate 15.625 g/ha",0%
same,"PANMI Obs, % control score","weeds [2]; PANMI, HST inhibitor rate 62.5 g/ha",0%
same,"PANMI Obs, % control score","weeds [2]; PANMI, HST inhibitor rate 250 g/ha",50%
same,"SETFA Obs, % control score","weeds [2]; SETFA, HST inhibitor rate 15.625 g/ha",0%
same,"SETFA Obs, % control score","weeds [2]; SETFA, HST inhibitor rate 62.5 g/ha",20%
same,"SETFA Obs, % control score","weeds [2]; SETFA, HST inhibitor rate 250 g/ha",25%
same,"SIDSP Obs, % control score","weeds [2]; SIDSP, HST inhibitor rate 15.625 g/ha",0%
same,"SIDSP Obs, % control score","weeds [2]; SIDSP, HST inhibitor rate 62.5 g/ha",30%
same,"SIDSP Obs, % control score","weeds [2]; SIDSP, HST inhibitor rate 250 g/ha",30%
same,Estimated IC50 (ppm),Arabidopsis HST,6 ppm
O=c1c(-c2c(F)ccc(F)c2Cl)c(O)c2nccnc2n1CC(F)(F)F [Compound 2.17],pest or weed control at 15.625 g/ha,"weeds [1]; BRAPL, 15.625 g/ha alone",1%
same,pest or weed control at 62.5 g/ha,"weeds [1]; BRAPL, 62.5 g/ha alone",15%
same,pest or weed control at 250 g/ha,"weeds [1]; BRAPL, 250 g/ha alone",50%
same,pest or weed control at 15.625 g/ha,"weeds [1]; PANMI, 15.625 g/ha alone",0%
same,pest or weed control at 62.5 g/ha,"weeds [1]; PANMI, 62.5 g/ha alone",10%
same,pest or weed control at 250 g/ha,"weeds [1]; PANMI, 250 g/ha alone",55%
same,pest or weed control at 15.625 g/ha,"weeds [1]; SIDSP, 15.625 g/ha alone",5%
same,pest or weed control at 62.5 g/ha,"weeds [1]; SIDSP, 62.5 g/ha alone",15%
same,pest or weed control at 250 g/ha,"weeds [1]; SIDSP, 250 g/ha alone",50%
same,pest or weed control at 15.625 g/ha,"weeds [1]; Digitaria sanguinalis, DIGSA, 15.625 g/ha alone",0%
same,pest or weed control at 62.5 g/ha,"weeds [1]; Digitaria sanguinalis, DIGSA, 62.5 g/ha alone",5%
same,pest or weed control at 250 g/ha,"weeds [1]; Digitaria sanguinalis, DIGSA, 250 g/ha alone",50%
same,pest or weed control at 15.625 g/ha,"weeds [1]; Echinochloa crus-galli, ECHCG, 15.625 g/ha alone",0%
same,pest or weed control at 62.5 g/ha,"weeds [1]; Echinochloa crus-galli, ECHCG, 62.5 g/ha alone",5%
same,pest or weed control at 250 g/ha,"weeds [1]; Echinochloa crus-galli, ECHCG, 250 g/ha alone",40%
same,pest or weed control at 15.625 g/ha,"weeds [1]; Setaria faberi, SETFA, 15.625 g/ha alone",0%
same,pest or weed control at 62.5 g/ha,"weeds [1]; Setaria faberi, SETFA, 62.5 g/ha alone",10%
same,pest or weed control at 250 g/ha,"weeds [1]; Setaria faberi, SETFA, 250 g/ha alone",40%
same,pest or weed control at 15.625 g/ha,"weeds [2]; BRAPL, HST inhibitor rate 15.625 g/ha, read-out: BRAPL Obs, % control score",0%
same,pest or weed control at 62.5 g/ha,"weeds [2]; BRAPL, HST inhibitor rate 62.5 g/ha, read-out: BRAPL Obs, % control score",0%
same,pest or weed control at 250 g/ha,"weeds [2]; BRAPL, HST inhibitor rate 250 g/ha, read-out: BRAPL Obs, % control score",2%
same,pest or weed control at 15.625 g/ha,"weeds [2]; PANMI, HST inhibitor rate 15.625 g/ha, read-out: PANMI Obs, % control score",0%
same,pest or weed control at 62.5 g/ha,"weeds [2]; PANMI, HST inhibitor rate 62.5 g/ha, read-out: PANMI Obs, % control score",0%
same,pest or weed control at 250 g/ha,"weeds [2]; PANMI, HST inhibitor rate 250 g/ha, read-out: PANMI Obs, % control score",0%
same,pest or weed control at 15.625 g/ha,"weeds [2]; SIDSP, HST inhibitor rate 15.625 g/ha, read-out: SIDSP Obs, % control score",0%
same,pest or weed control at 62.5 g/ha,"weeds [2]; SIDSP, HST inhibitor rate 62.5 g/ha, read-out: SIDSP Obs, % control score",0%
same,pest or weed control at 250 g/ha,"weeds [2]; SIDSP, HST inhibitor rate 250 g/ha, read-out: SIDSP Obs, % control score",0%
same,pest or weed control at 15.625 g/ha,"weeds [2]; Digitaria sanguinalis, DIGSA, HST inhibitor rate 15.625 g/ha, read-out: DIGSA Obs, % control score",0%
same,pest or weed control at 62.5 g/ha,"weeds [2]; Digitaria sanguinalis, DIGSA, HST inhibitor rate 62.5 g/ha, read-out: DIGSA Obs, % control score",0%
same,pest or weed control at 250 g/ha,"weeds [2]; Digitaria sanguinalis, DIGSA, HST inhibitor rate 250 g/ha, read-out: DIGSA Obs, % control score",0%
same,pest or weed control at 15.625 g/ha,"weeds [2]; Echinochloa crus-galli, ECHCG, HST inhibitor rate 15.625 g/ha, read-out: ECHCG Obs, % control score",0%
same,pest or weed control at 62.5 g/ha,"weeds [2]; Echinochloa crus-galli, ECHCG, HST inhibitor rate 62.5 g/ha, read-out: ECHCG Obs, % control score",0%
same,pest or weed control at 250 g/ha,"weeds [2]; Echinochloa crus-galli, ECHCG, HST inhibitor rate 250 g/ha, read-out: ECHCG Obs, % control score",10%
same,pest or weed control at 15.625 g/ha,"weeds [2]; Setaria faberi, SETFA, HST inhibitor rate 15.625 g/ha, read-out: SETFA Obs, % control score",0%
same,pest or weed control at 62.5 g/ha,"weeds [2]; Setaria faberi, SETFA, HST inhibitor rate 62.5 g/ha, read-out: SETFA Obs, % control score",0%
same,pest or weed control at 250 g/ha,"weeds [2]; Setaria faberi, SETFA, HST inhibitor rate 250 g/ha, read-out: SETFA Obs, % control score",10%
same,Estimated IC50 (ppm),Arabidopsis HST,38 ppm
